Experimental data: patent US20240083861A1, “HSD17B13 INHIBITORS AND USES THEREOF” (FL2022-001, Inc., priority 2020, published 2024)

Biological target: T1, Recombinant human HSD17B13 enzyme (Homo sapiens, UniProt Q7Z5P4)
T1 sequence (Q7Z5P4 20-300): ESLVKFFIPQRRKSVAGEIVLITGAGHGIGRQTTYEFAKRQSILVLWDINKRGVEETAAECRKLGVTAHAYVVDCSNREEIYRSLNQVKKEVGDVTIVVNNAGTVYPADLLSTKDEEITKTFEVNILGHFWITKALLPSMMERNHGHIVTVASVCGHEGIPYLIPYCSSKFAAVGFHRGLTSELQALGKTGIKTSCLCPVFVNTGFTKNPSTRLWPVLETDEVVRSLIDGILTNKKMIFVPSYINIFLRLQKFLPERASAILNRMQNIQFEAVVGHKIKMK
Test: HSD17b13 NAD(P)H-Glo biochemical assay
Details: for IC50: 50 uM estradiol, 1 mM NAD+, NAD(P)H-Glo luminescence, read-out: HSD17β13 IC50
Procedure: Example B-1: HSD17b13 NAD(P)H-Glo Biochemical Assay
Recombinant human HSD17B13 enzyme. Substrate: estradiol (Sigma β-Estradiol E8875), 100 mM in DMSO. Cofactor: NAD+ Grade I free acid (Sigma 10127965001), 20 mM in H2O. Assay buffer final concentration: 20 mM Tris pH7.4 with 0.002% Tween-20 and 0.02% BSA. Assay performed in 384 well solid bottom plate (Corning 3570). Enzymatic activity detected by NAD(P)H-Glo™ Detection System (Promega G9062).
Inhibitor compounds were serially diluted in DMSO and then further diluted in assay buffer to a 10× concentration consisting of 1% DMSO.
HSD17b13 enzyme was diluted in 1× assay buffer to the desired enzyme concentration based on the specific activity of the enzyme lot. 20 uL of diluted enzyme was added to each well along with 2.5 uL of 10× inhibitor solution. Assay plate was incubated at RT for 20 minutes, and then 2.5 uL of a 10× substrate/cofactor mix was added to each well for a final concentration of 50 uM estradiol and 1 mM NAD+. Assay plate was incubated at 37° C. for 3 hours. NAD(P)H-Glo™ Detection System reagents were prepared according to manufacturer's specifications, and 25 uL was added to each well. After incubating for 1 hour at RT, luminescence was measured.

SMILES	IC50	inhibition at 10 µM (at 10 uM compound, read-out: HSD17β13 % inhibition at 10 uM)
Cn1nc(-c2cc(C(F)(F)F)c(F)c(O)c2F)c2cnc(N3CC4(CCOCC4)C3)cc21 [Compound 9.10, 2,6-Difluoro-3-(1-methyl-6-(7-oxa-2-azaspiro[3.5]nonan-2-yl)-1H-pyrazolo[4,3-c]pyridin-3-yl)-5-(trifluoromethyl)phenol]	< 100 nM	
CN(CC1CC1)c1cc2c(cn1)c(-c1cc(C(F)(F)F)c(F)c(O)c1F)nn2C [Compound 9.11, 3-(6-((Cyclopropylmethyl) (methyl)amino)-1-methyl-1H-pyrazolo[4,3-c]pyridin-3-yl)-2,6-difluoro-5-(trifluoromethyl)phenol]	< 100 nM	
Cn1nc(-c2cc(C(F)(F)F)c(F)c(O)c2F)c2cnc(N3CC4(COC4)C3)cc21 [Compound 9.12, 2,6-Difluoro-3-(1-methyl-6-(2-oxa-6-azaspiro[3.3]heptan-6-yl)-1H-pyrazolo[4,3-c]pyridin-3-yl)-5-(trifluoromethyl)phenol]	< 100 nM	
COC1(C)CN(c2ncc3c(-c4cc(C(F)(F)F)c(F)c(O)c4F)nn(C)c3n2)C1 [Compound 9.13, 2,6-Difluoro-3-(6-(3-methoxy-3-methylazetidin-1-yl)-1-methyl-1H-pyrazolo[3,4-d]pyrimidin-3-yl)-5-(trifluoromethyl)phenol]	< 100 nM	
Cn1nc(-c2cc(C(F)(F)F)c(F)c(O)c2F)c2cnc(NC3CCC3)cc21 [Compound 9.14, 3-(6-(Cyclobutylamino)-1-methyl-1H-pyrazolo[4,3-c]pyridin-3-yl)-2,6-difluoro-5-(trifluoromethyl)phenol]	< 100 nM	
Cn1nc(-c2cc(C(F)(F)F)c(F)c(O)c2F)c2cnc(NC34CC(C3)C4)nc21 [Compound 9.15, 3-(6-(Bicyclo[1.1.1]pentan-1-ylamino)-1-methyl-1H-pyrazolo[3,4-d]pyrimidin-3-yl)-2,6-difluoro-5-(trifluoromethyl)phenol]	< 100 nM	
Cn1nc(-c2cc(C(F)(F)F)c(F)c(O)c2F)c2cnc(NC3CCC3)nc21 [Compound 9.16, 3-(6-(Cyclobutylamino)-1-methyl-1H-pyrazolo[3,4-d]pyrimidin-3-yl)-2,6-difluoro-5-(trifluoromethyl)phenol]	< 100 nM	
CN(c1cc2c(cn1)c(-c1cc(C(F)(F)F)c(F)c(O)c1F)nn2C)C1CCOCC1 [Compound 9.17, 2,6-Difluoro-3-(1-methyl-6-(methyl(tetrahydro-2H-pyran-4-yl)amino)-1H-pyrazolo[4,3-c]pyridin-3-yl)-5-(trifluoromethyl)phenol]	< 100 nM	
CN(c1ccc2c(-c3cc(C(F)(F)F)c(F)c(O)c3F)nn(C)c2n1)C1CCC1 [Compound 9.18, 3-(6-(Cyclobutyl(methyl)amino)-1-methyl-1H-pyrazolo[3,4-b]pyridin-3-yl)-2,6-difluoro-5-(trifluoromethyl)phenol]	< 100 nM	
Cn1nc(-c2cc(C(F)(F)F)c(F)c(O)c2F)c2ccc(N3CCOCC34CC4)cc21 [Compound 9.19, 2,6-Difluoro-3-(1-methyl-6-(7-oxa-4-azaspiro[2.5]octan-4-yl)-1H-indazol-3-yl)-5-(trifluoromethyl)phenol]	< 100 nM	
Cn1nc(-c2cc(C(F)(F)F)c(F)c(O)c2F)c2cnc(N3C4CCC3COC4)cc21 [Compound 9.20, 3-(6-(3-Oxa-8-azabicyclo [3.2.1]octan-8-yl)-1-methyl-1H-pyrazolo[4,3-c]pyridin-3-yl)-2,6-difluoro-5-(trifluoromethyl)phenol]	< 100 nM	
COCC1(N(C)c2cc3c(cn2)c(-c2cc(C(F)(F)F)c(F)c(O)c2F)nn3C)CCC1 [Compound 9.21, 2,6-Difluoro-3-(6-((1-(methoxymethyl)cyclobutyl)(methyl)amino)-1-methyl-1H-pyrazolo[4,3-c]pyridin-3-yl)-5-(trifluoromethyl)phenol]	< 100 nM	
CS(=O)(=O)N1CCN(c2ccc3c(-c4cc(O)cc(C(F)(F)F)c4F)n[nH]c3c2)CC1 [Compound 9.22, 4-Fluoro-3-(6-(4-(methylsulfonyl)piperazin-1-yl)-1H-indazol-3-yl)-5-(trifluoromethyl)phenol]		36%
CS(=O)(=O)N1CCN(c2ccc3c(-c4cc(O)c(F)c(C(F)(F)F)c4)n[nH]c3c2)CC1 [Compound 9.23, 2-Fluoro-5-(6-(4-(methylsulfonyl)piperazin-1-yl)-1H-indazol-3-yl)-3-(trifluoromethyl)phenol]	100 to 1000 nM	
CS(=O)(=O)N1CCN(c2cc3[nH]nc(-c4cc(O)c(F)c(C(F)(F)F)c4)c3cc2F)CC1 [Compound 9.24, 2-Fluoro-5-(5-fluoro-6-(4-(methylsulfonyl)piperazin-1-yl)-1H-indazol-3-yl)-3-(trifluoromethyl)phenol]	100 to 1000 nM	
Cc1cc(-c2n[nH]c3cc(N4CCN(S(C)(=O)=O)CC4)ccc23)c(F)c(O)c1F [Compound 9.25, 2,6-Difluoro-3-methyl-5-(6-(4-(methylsulfonyl)piperazin-1-yl)-1H-indazol-3-yl)phenol]	100 to 1000 nM	
Cn1nc(-c2cc(O)c(F)c(C(F)(F)F)c2)c2ccc(N3CCN(S(C)(=O)=O)CC3)cc21 [Compound 9.26, 2-Fluoro-5-(1-methyl-6-(4-(methylsulfonyl)piperazin-1-yl)-1H-indazol-3-yl)-3-(trifluoromethyl)phenol]	100 to 1000 nM	
CN(c1cc2c(cn1)c(-c1cc(C(F)(F)F)c(F)c(O)c1F)nn2C)C1CCOC1 (stereo not shown) [Compound 9.27, 2,6-Difluoro-3-(1-methyl-6-(methyl(tetrahydrofuran-3-yl)amino)-1H-pyrazolo[4,3-c]pyridin-3-yl)-5-(trifluoromethyl)phenol]	100 to 1000 nM	
Cn1nc(-c2cc(C(F)(F)F)c(F)c(O)c2F)c2cnc(N3CC4CCC3CO4)cc21 (stereo not shown) [Compound 9.28, 3-(6-(2-Oxa-5-azabicyclo[2.2.2]octan-5-yl)-1-methyl-1H-pyrazolo[4,3-c]pyridin-3-yl)-2,6-difluoro-5-(trifluoromethyl)phenol]	< 100 nM	
Cn1nc(-c2cc(C(F)(F)F)c(F)c(O)c2F)c2cnc(N(C3CCC3)C3CCOCC3)cc21 [Compound 9.29, 3-(6-(Cyclobutyl(tetrahydro-2H-pyran-4-yl)amino)-1-methyl-1H-pyrazolo[4,3-c]pyridin-3-yl)-2,6-difluoro-5-(trifluoromethyl)phenol]	< 100 nM	
C[C@@H]1COCCN1c1cc2c(cn1)c(-c1cc(C(F)(F)F)c(F)c(O)c1F)nn2C [Compound 9.30, (R)-2,6-Difluoro-3-(1-methyl-6-(3-methylmorpholino)-1H-pyrazolo[4,3-c]pyridin-3-yl)-5-(trifluoromethyl)phenol]	< 100 nM	
Cn1nc(-c2cc(C(F)(F)F)c(F)c(O)c2F)c2cnc(N3CCOCC3(C)C)cc21 [Compound 9.31, 3-(6-(3,3-Dimethylmorpholino)-1-methyl-1H-pyrazolo[4,3-c]pyridine-3-yl)-2,6-difluoro-5-(trifluoromethyl)phenol]	< 100 nM	
CN(c1cc2c(cn1)c(-c1cc(C(F)(F)F)c(F)c(O)c1F)nn2C)C12CC(C1)C2 [Compound 9.32, 3-(6-(Bicyclo[1.1.1]pentan-1-yl(methyl)amino)-1-methyl-1H-pyrazolo[4,3-c]pyridin-3-yl)-2,6-difluoro-5-(trifluoromethyl)phenol]	< 100 nM	
Cn1nc(-c2cc(C(F)(F)F)c(F)c(O)c2F)c2cnc(N3CCOC(C)(C)C3)cc21 [Compound 9.33, 3-(6-(2,2-Dimethylmorpholino)-1-methyl-1H-pyrazolo[4,3-c]pyridin-3-yl)-2,6-difluoro-5-(trifluoromethyl)phenol]	< 100 nM	
CC(C)n1nc(-c2cc(C(F)(F)F)c(F)c(O)c2F)c2cnc(N3CCOCC34CC4)cc21 [Compound 9.34, 2,6-Difluoro-3-(1-isopropyl-6-(7-oxa-4-azaspiro[2.5]octan-4-yl)-1H-pyrazolo[4,3-c]pyridin-3-yl)-5-(trifluoromethyl)phenol]	< 100 nM	
Cn1nc(-c2cc(C(F)(F)F)c(F)c(O)c2F)c2cnc(N3CCOCC34CCC4)cc21 [Compound 9.35, 2,6-Difluoro-3-(1-methyl-6-(8-oxa-5-azaspiro[3.5]nonan-5-yl)-1H-pyrazolo[4,3-c]pyridin-3-yl)-5-(trifluoromethyl)phenol]	< 100 nM	
CO[C@H]1C[C@@H](N(C)c2cc3c(cn2)c(-c2cc(C(F)(F)F)c(F)c(O)c2F)nn3C)C1 [Compound 9.36, 2,6-Difluoro-3-(6-((cis-3-methoxycyclobutyl)(methyl)amino)-1-methyl-1H-pyrazolo[4,3-c]pyridin-3-yl)-5-(trifluoromethyl)phenol]	< 100 nM	
CCn1nc(-c2cc(C(F)(F)F)c(F)c(O)c2F)c2cnc(N3CCOCC34CC4)cc21 [Compound 9.37, 3-(1-Ethyl-6-(7-oxa-4-azaspiro[2.5]octan-4-yl)-1H-pyrazolo[4,3-c]pyridin-3-yl)-2,6-difluoro-5-(trifluoromethyl)phenol]	< 100 nM	
